Measurements reported in PubChem BioAssay (NCI).
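Tested at 5 concentrations; 48 h exposure; 96-well plates; endpoints linearly interpolated, else capped at highest concentration. At the GI50, growth is halved. TGI: concentration producing complete growth inhibition.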

What was measured:
Test in all cases: growth of human tumour cells (NCI), 48 h
HCT-116 colon = tested on: HCT-116 colon
OVCAR-5 ovarian = tested on: OVCAR-5 ovarian
SF-295 CNS = tested on: SF-295 CNS
OVCAR-4 ovarian = tested on: OVCAR-4 ovarian
HOP-62 NSCLC = tested on: HOP-62 NSCLC
OVCAR-8 ovarian = tested on: OVCAR-8 ovarian
EKVX NSCLC = tested on: EKVX NSCLC
RPMI-8226 leukemia = tested on: RPMI-8226 leukemia

SMILES | TGI (HCT-116 colon) [µM] | TGI (OVCAR-5 ovarian) [µM] | TGI (SF-295 CNS) [µM] | TGI (OVCAR-4 ovarian) [µM] | TGI (HOP-62 NSCLC) [µM] | TGI (OVCAR-8 ovarian) [µM] | TGI (EKVX NSCLC) [µM] | TGI (RPMI-8226 leukemia) [µM] | GI50 (HCT-116 colon) [µM] | GI50 (OVCAR-5 ovarian) [µM] | GI50 (SF-295 CNS) [µM] | GI50 (OVCAR-4 ovarian) [µM] | GI50 (HOP-62 NSCLC) [µM] | GI50 (OVCAR-8 ovarian) [µM] | GI50 (EKVX NSCLC) [µM] | GI50 (RPMI-8226 leukemia) [µM]
CNC(=O)OCc1nc(SC2CCCCO2)n(C)c1COC(=O)NC (configuration not stated) | > 100 | > 100 | > 100 | > 100 | > 100 | > 100 | > 100 | > 100 | – | – | – | – | – | – | – | –
NC(=S)N/N=C(/CC(=O)c1ccccc1)C(=O)Nc1ccc(Cl)c(Cl)c1 | > 100 | > 100 | > 100 | > 100 | > 100 | > 100 | > 100 | > 100 | – | – | – | – | – | – | – | –
COc1ccccc1NC(=O)C1=C(C)NC(C)=C(C(=O)Nc2ccccc2OC)C1c1ccccc1F | > 100 | > 100 | > 100 | > 100 | > 100 | > 100 | > 100 | > 100 | – | – | – | – | – | – | – | –
COC(=O)CCC(NC(=S)N/N=C(\C)c1nccs1)C(=O)OC (configuration not stated) | > 100 | > 100 | > 100 | > 100 | > 100 | > 100 | > 100 | > 100 | – | – | – | – | – | – | – | –
CCCc1[nH]nc(CCC(=O)N(Cc2ccccc2)Cc2ccccc2)c1CC | – | > 100 | > 100 | > 100 | > 100 | > 100 | > 100 | > 100 | – | – | – | – | – | – | – | –
CC(C)C(=O)Nc1nc2nc[nH]c2c(=O)[nH]1 | > 100 | > 100 | > 100 | > 100 | > 100 | > 100 | > 100 | > 100 | – | – | – | – | – | – | – | –
O=C([O-])c1ccccc1Nc1ccccn1.O=C([O-])c1ccccc1Nc1ccccn1.[Ni+2] | > 100 | > 100 | > 100 | > 100 | > 100 | > 100 | > 100 | > 100 | > 100 | 75.6 | > 100 | > 100 | > 100 | > 100 | 31.8 | > 100
CNS(=O)(=O)NN(C)S(=O)(=O)c1ccc(F)cc1 | > 100 | > 100 | > 100 | > 100 | > 100 | > 100 | > 100 | > 100 | – | – | – | – | – | – | – | –
CCCCCCCCCc1cc(=O)c2ccc(OCc3ccccc3)cc2o1 | > 100 | > 100 | > 100 | > 100 | > 100 | > 100 | > 100 | – | – | – | – | – | – | – | – | –
COCCN1C2=CCCCC2=Nc2c1nc(N)[nH]c2=O | > 100 | > 100 | > 100 | – | > 100 | > 100 | > 100 | > 100 | – | – | – | – | – | – | – | –
Cc1ccncc1.[O]=[Ge].[O]=[Ge].[O]=[Ge].[O]=[Ge].[O]=[Ge].[O]=[Ge][OH].[O]=[Ge][OH] | > 100 | > 100 | > 100 | > 100 | > 100 | > 100 | > 100 | > 100 | > 100 | > 100 | > 100 | > 100 | > 100 | > 100 | > 100 | > 100
O=C(O)c1ccc([Se][Se]c2ccc(C(=O)O)cc2)cc1 | 34.5 | 66.8 | 54.7 | 49.1 | – | 70.8 | 64.3 | 91.7 | – | – | – | – | – | – | – | –
O=Cc1cn(C(=O)c2ccccc2)c2ccccc12 | > 100 | > 100 | > 100 | > 100 | > 100 | > 100 | > 100 | > 100 | – | – | – | – | – | – | – | –
C=CCC1([C@H](C)[C@@H](OC(C)=O)c2cc(OC)c(OC)c(OC)c2)C[C@@H](OC)CCC1=O (some centres not stated) | 32.3 | – | 39.7 | 85.1 | 85.3 | 54.2 | 76.2 | 50.3 | – | – | – | – | – | – | – | –
CC1CCCCc2nc3c(c(=O)n21)CCCC3 (configuration not stated) | > 100 | > 100 | > 100 | > 100 | > 100 | > 100 | – | – | – | – | – | – | – | – | – | –
CCOC(=O)C1=C(C)N(Cc2ccccc2)C(C)=C(C(=O)OCC)C1c1ccccc1O | > 100 | > 100 | > 100 | > 100 | 99.2 | > 100 | 95.9 | – | – | – | – | – | – | – | – | –
Cc1cc(N(CCC#N)S(=O)(=O)c2ccccc2)ccc1/C=C1N=C(/C=C/c2ccccc2)OC\1=O | > 100 | > 100 | > 100 | – | > 100 | > 100 | > 100 | > 100 | – | – | – | – | – | – | – | –
C=C1C(=O)O[C@H]2[C@H]1[C@H](OC(=O)/C(C)=C\C)CC(=C)[C@@H]1[C@H](O)[C@H]3O[C@@]3(C)[C@@]12O | > 100 | – | > 100 | > 100 | > 100 | > 100 | > 100 | > 100 | – | – | – | – | – | – | – | –
Cc1ccc(-c2c(N)[n+]([O-])c3ccccc3[n+]2[O-])cc1 | – | 32.5 | 45.1 | 33.1 | 31 | > 100 | 50.2 | > 100 | – | – | – | – | – | – | – | –
